Here are results for 2 molecules from paper PMC2504292 (Nucleic Acids Research, 2008).

For data set [1], the target named is T1, PARN RRM (cap-binding domain of mouse PARN, residues 430-516) (Mus musculus, UniProt Q8VDG3).
T1 sequence (Q8VDG3 430-516): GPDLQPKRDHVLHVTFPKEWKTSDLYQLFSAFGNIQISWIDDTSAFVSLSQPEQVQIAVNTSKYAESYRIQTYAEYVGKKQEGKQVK
Briefly: isothermal titration calorimetry. (In general: In ITC the heat of successive injections is recorded.)

In data set [2] the target is T2, PARN RRM (cap-binding domain), NMR/ITC construct (mouse, UniProt Q8VDG3 430-516).
T2 sequence: T1 sequence (Q8VDG3 430-516)
Briefly: NMR HSQC titration.

`C[n+]1cn([C@@H]2O[C@H](COP(=O)(O)OP(=O)(O)OP(=O)(O)OC[C@H]3O[C@@H](n4cnc5c(=O)[nH]c(N)nc54)[C@H](O)[C@@H]3O)[C@@H](O)[C@H]2O)c2nc(N)[nH]c(=O)c21` [m7GpppG] came in with a dissociation constant Kd in data set [1] of around 45 µM.

B1: A10 10-mer poly(A) (ssRNA)
RNA: AAAAAAAAAA
Take B1: the binding result in data set [2] was “no binding”.

What is called Kd is the concentration at which binding is half-saturated. The low end stands for tighter binding, the high end for weaker binding.
